Laboratory results reported in patent US20100041089A1, “IMPROVED METHOD FOR DETECTING CHEMICAL […]” (priority 2006, published 2010).

System: yeast genes (expressed mRNA)
Assay: DNA chip measurement of expressed mRNA of yeast genes after culture with a toxic chemical substance
Type: cell-based, Saccharomyces cerevisiae S288C
Details: for level of expressed mRNA in the presence of chemical substance / level in the absence of chemical substance: cultured two hours with the chemical substance; for The level of expressed mRNA in the presence of chemical substance/The level of expressed mRNA in the absence of chemical substance: cultured two hours with substance
Outline: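 Each expression value is the mRNA level in chemical-treated yeast divided by that in untreated yeast, from Cy3/Cy5 fluorescence on a whole-genome chip. Log-phase S288C cells in YPD at 25° C had received a sublethal, growth-inhibiting dose for two hours. Intensity denotes control expression relative to the all-gene mean.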

Na2As [(1)]
2.3: The level of expressed mRNA in the presence of chemical substance/The level of expressed mRNA in the absence of chemical substance (yeast gene YPR151C)
1.6: level of expressed mRNA in the presence of chemical substance / level in the absence of chemical substance (yeast gene YNL194C)
0.7: The level of expressed mRNA in the presence of chemical substance/The level of expressed mRNA in the absence of chemical substance (yeast gene YNL115C) | level of expressed mRNA in the presence of chemical substance / level in the absence of chemical substance (yeast gene YNR051C) | level of expressed mRNA in the presence of chemical substance / level in the absence of chemical substance (yeast gene YOR087W) | level of expressed mRNA in the presence of chemical substance / level in the absence of chemical substance (yeast gene YPL150W)
1.0: level of expressed mRNA in the presence of chemical substance / level in the absence of chemical substance (yeast gene YNL200C) | The level of expressed mRNA in the presence of chemical substance/The level of expressed mRNA in the absence of chemical substance (yeast gene YNL281W) | The level of expressed mRNA in the presence of chemical substance/The level of expressed mRNA in the absence of chemical substance (yeast gene YOL082W) | The level of expressed mRNA in the presence of chemical substance/The level of expressed mRNA in the absence of chemical substance (yeast gene YOL117W) | The level of expressed mRNA in the presence of chemical substance/The level of expressed mRNA in the absence of chemical substance (yeast gene YOL131W) | level of expressed mRNA in the presence of chemical substance / level in the absence of chemical substance (yeast gene YOR325W) | level of expressed mRNA in the presence of chemical substance / level in the absence of chemical substance (yeast gene YPL005W) | The level of expressed mRNA in the presence of chemical substance/The level of expressed mRNA in the absence of chemical substance (yeast gene YPL087W) | The level of expressed mRNA in the presence of chemical substance/The level of expressed mRNA in the absence of chemical substance (yeast gene YPL206C) | level of expressed mRNA in the presence of chemical substance / level in the absence of chemical substance (yeast gene YPR049C)
1.2: The level of expressed mRNA in the presence of chemical substance/The level of expressed mRNA in the absence of chemical substance (yeast gene YNR068C) | level of expressed mRNA in the presence of chemical substance / level in the absence of chemical substance (yeast gene YOL026C) | The level of expressed mRNA in the presence of chemical substance/The level of expressed mRNA in the absence of chemical substance (yeast gene YPR023C)
4.1: The level of expressed mRNA in the presence of chemical substance/The level of expressed mRNA in the absence of chemical substance (yeast gene YOL150C)
2.0: level of expressed mRNA in the presence of chemical substance / level in the absence of chemical substance (yeast gene YNL058C) | The level of expressed mRNA in the presence of chemical substance/The level of expressed mRNA in the absence of chemical substance (yeast gene YOL162W)
1.4: The level of expressed mRNA in the presence of chemical substance/The level of expressed mRNA in the absence of chemical substance (yeast gene YOL047C) | level of expressed mRNA in the presence of chemical substance / level in the absence of chemical substance (yeast gene YPL152W)
0.9: level of expressed mRNA in the presence of chemical substance / level in the absence of chemical substance (yeast gene YNL063W) | The level of expressed mRNA in the presence of chemical substance/The level of expressed mRNA in the absence of chemical substance (yeast gene YNL074C) | The level of expressed mRNA in the presence of chemical substance/The level of expressed mRNA in the absence of chemical substance (yeast gene YNL305C) | level of expressed mRNA in the presence of chemical substance / level in the absence of chemical substance (yeast gene YOR253W) | level of expressed mRNA in the presence of chemical substance / level in the absence of chemical substance (yeast gene YPL180W) | level of expressed mRNA in the presence of chemical substance / level in the absence of chemical substance (yeast gene YPL221W) | The level of expressed mRNA in the presence of chemical substance/The level of expressed mRNA in the absence of chemical substance (yeast gene YPL222W)
1.1: The level of expressed mRNA in the presence of chemical substance/The level of expressed mRNA in the absence of chemical substance (yeast gene YNL156C) | level of expressed mRNA in the presence of chemical substance / level in the absence of chemical substance (yeast gene YNL176C) | The level of expressed mRNA in the presence of chemical substance/The level of expressed mRNA in the absence of chemical substance (yeast gene YNL234W) | The level of expressed mRNA in the presence of chemical substance/The level of expressed mRNA in the absence of chemical substance (yeast gene YOL083W) | level of expressed mRNA in the presence of chemical substance / level in the absence of chemical substance (yeast gene YPL168W) | level of expressed mRNA in the presence of chemical substance / level in the absence of chemical substance (yeast gene YPR148C) | level of expressed mRNA in the presence of chemical substance / level in the absence of chemical substance (yeast gene YPR172W)
0.8: The level of expressed mRNA in the presence of chemical substance/The level of expressed mRNA in the absence of chemical substance (yeast gene YOL036W) | level of expressed mRNA in the presence of chemical substance / level in the absence of chemical substance (yeast gene YOR138C) | The level of expressed mRNA in the presence of chemical substance/The level of expressed mRNA in the absence of chemical substance (yeast gene YOR197W) | level of expressed mRNA in the presence of chemical substance / level in the absence of chemical substance (yeast gene YOR267C) | level of expressed mRNA in the presence of chemical substance / level in the absence of chemical substance (yeast gene YPR146C)
2.9: The level of expressed mRNA in the presence of chemical substance/The level of expressed mRNA in the absence of chemical substance (yeast gene YOR019W)
1.3: The level of expressed mRNA in the presence of chemical substance/The level of expressed mRNA in the absence of chemical substance (yeast gene YNL092W) | level of expressed mRNA in the presence of chemical substance / level in the absence of chemical substance (yeast gene YNL253W) | level of expressed mRNA in the presence of chemical substance / level in the absence of chemical substance (yeast gene YNL276C) | The level of expressed mRNA in the presence of chemical substance/The level of expressed mRNA in the absence of chemical substance (yeast gene YOL032W) | The level of expressed mRNA in the presence of chemical substance/The level of expressed mRNA in the absence of chemical substance (yeast gene YOL071W) | level of expressed mRNA in the presence of chemical substance / level in the absence of chemical substance (yeast gene YOR022C) | level of expressed mRNA in the presence of chemical substance / level in the absence of chemical substance (yeast gene YPL188W) | The level of expressed mRNA in the presence of chemical substance/The level of expressed mRNA in the absence of chemical substance (yeast gene YPL196W) | level of expressed mRNA in the presence of chemical substance / level in the absence of chemical substance (yeast gene YPL225W)
